Values quoted from earlier work in patent US20140106010A1, “Blend of Green and Black Extracts for the Promotion of Health Benefits” (Kemin Industries, Inc., priority 2012, published 2014).

What was measured:
[1] = system: ERK1 and ERK2; details: TRAMP mice, 0.06% EGCG in drinking water, dorsolateral and ventral prostate
[2] = system: prostate tissue of C57BL/6 mice; details: 2 weeks decaffeinated black tea extract at 50 mg/g diet

Compound | decreased phosphorylation of ERK1 and ERK2 [1] | greater relative absorption into the prostate compared to EGCG [2] [%]
epigallocatechin-3-gallate [EGCG] | about 50% | 
O=c1c(O)cc([C@H]2Oc3cc(O)cc(O)c3C[C@H]2O)cc2c([C@H]3Oc4cc(O)cc(O)c4C[C@H]3O)cc(O)c(O)c12 [theaflavin] |  | 70
